Source: US10105357B2, “Indication of antibiotic drugs for preparation of cancer inhibition pharmaceutical composition” (LAUNX BIOMEDICAL CO., LTD., priority 2014, dated 2018)
Read-outs that look alike come from different tables or passages of the source.

Assays:
[1] = test system: LoVo (Colorectal Adenocarcinoma); assay: Cell viability analysis, colon cancer LoVo; type: cell-based, human; conditions: Homo sapiens, LoVo, 72 h
[2] = test system: PC3 (p53−) (Prostate Adenocarcinoma); assay: Cell viability analysis, prostate cancer PC3; type: cell-based, human; conditions: Homo sapiens, 72 h
[3] = test system: BxPC-3; assay: Cell viability analysis, pancreatic cancer BxPC-3; type: cell-based, human; conditions: Homo sapiens, 72 h; BxPC-3; repeated experiment; read-out: The results of antibiotic drug inhibiting cancer cell lines (cell viability analysis), BxPC-3
[4] = test system: HepG2 (Hepatocellular Carcinoma); assay: Cell viability analysis, hepatic cancer HepG2; type: cell-based, human; conditions: Homo sapiens, HepG2, 72 h
[5] = test system: MDA-MB-231 (Mammary Gland, Adenocarcinoma); assay: Cell viability analysis, breast cancer MDA-MB-231; type: cell-based, human; conditions: Homo sapiens, MDA-MB-231, 72 h; MDA-MB231; repeated experiment; read-out: The results of antibiotic drug inhibiting cancer cell lines (cell viability analysis), MDA-MB231
[6] = test system: NIH: OVCAR-3; assay: Cell viability analysis, ovarian cancer NIH: OVCAR-3; type: cell-based, human; conditions: Homo sapiens, 72 h; NIH-OVCAR-3; repeated experiment; read-out: The results of antibiotic drug inhibiting cancer cell lines (cell viability analysis), NIH-OVCAR-3
[7] = test system: TSGH-8301 (Urinary Bladder Carcinoma); assay: Cell viability analysis, bladder cancer TSGH-8301; type: cell-based, human; conditions: Homo sapiens, 72 h
[8] = test system: Hep3B (hepatocellular carcinoma); assay: Cell viability analysis, hepatic cancer Hep3B; type: cell-based, human; conditions: Homo sapiens, 72 h; Hep3B; repeated experiment; read-out: The results of antibiotic drug inhibiting cancer cell lines (cell viability analysis), Hep3B
[9] = test system: HI650 (Lung Adenocarcinoma); assay: Cell viability analysis, lung cancer HI650; type: cell-based, human; conditions: Homo sapiens, NCI-H1650, 72 h
[10] = test system: C-33A (Cervical carcinoma); assay: Cell viability analysis, cervical cancer C-33A; type: cell-based, human; conditions: Homo sapiens, 72 h; C-33A; repeated experiment; read-out: The results of antibiotic drug inhibiting cancer cell lines (cell viability analysis), C-33A
[11] = test system: AsPC-1; assay: Cell viability analysis, pancreatic cancer AsPC-1; type: cell-based, human; conditions: Homo sapiens, ASPC1, 72 h; AsPC-1; repeated experiment; read-out: The results of antibiotic drug inhibiting cancer cell lines (cell viability analysis), AsPC-1
[12] = test system: A549 (Lung Adenocarcinoma); assay: Cell viability analysis, lung cancer A549; type: cell-based, human; conditions: Homo sapiens, A549, 72 h
[13] = test system: A375 (Amelanotic Melanoma); assay: Cell viability analysis, skin cancer A375; type: cell-based, human; conditions: Homo sapiens, A-375, 72 h
[14] = test system: HCT116 (p53+) (Colorectal Carcinoma)
[15] = test system: U-2OS; assay: Cell viability analysis, osteosarcoma U-2OS; type: cell-based, human; conditions: Homo sapiens, 72 h; U2OS; repeated experiment; read-out: The results of antibiotic drug inhibiting cancer cell lines (cell viability analysis), U2OS
[16] = test system: T24; assay: Cell viability analysis, bladder cancer T24; type: cell-based, human; conditions: Homo sapiens, T-24, 72 h; T24; repeated experiment; read-out: The results of antibiotic drug inhibiting cancer cell lines (cell viability analysis), T24
[17] = test system: HeLa (Cervix Adenocarcinoma); assay: Cell viability analysis, cervical cancer HeLa; type: cell-based, human; conditions: Homo sapiens, HeLa, 72 h, HeLa
[18] = test system: HL-60 (Acute Promyelocytic Leukemia); assay: Cell viability analysis, leukemia HL-60; type: cell-based, human; conditions: Homo sapiens, HL-60, 72 h, drug 10 μM, 72 hours, WST-1, OD450 nm; read-out: cell viability (survival rate), HL-60
[19] = test system: BCC (basal cell carcinoma); assay: Cell viability analysis, skin cancer BCC; type: cell-based, human; conditions: Homo sapiens, 72 h; BCC; repeated experiment; read-out: The results of antibiotic drug inhibiting cancer cell lines (cell viability analysis), BCC
[20] = test system: MKN-45 (Gastric Adenocarcinoma); assay: Cell viability analysis, gastric cancer MKN-45; type: cell-based, human; conditions: Homo sapiens, MKN-45, 72 h
[21] = test system: cancer cell lines; assay: Cell viability analysis (WST-1) on cancer cell lines; type: cell-based, human; conditions: drug 10 μM, 72 hours, WST-1; Table 3
[22] = test system: SAS (Tongue squamous cell carcinoma); assay: Cell viability analysis, tongue cancer SAS; type: cell-based, human; conditions: Homo sapiens, 72 h; SAS; repeated experiment; read-out: The results of antibiotic drug inhibiting cancer cell lines (cell viability analysis), SAS
[23] = test system: AGS (Gastric Adenocarcinoma); assay: Cell viability analysis, gastric cancer AGS; type: cell-based, human; conditions: Homo sapiens, 72 h
[24] = test system: TOV-21G; assay: Cell viability analysis, ovarian cancer TOV-21G; type: cell-based, human; conditions: Homo sapiens, TOV21G, 72 h; TOV-21G; repeated experiment; read-out: The results of antibiotic drug inhibiting cancer cell lines (cell viability analysis), TOV-21G
[25] = read-out: The results of antibiotic drug inhibiting cancer cell lines (cell viability analysis), LoVo, repeated experiment
[26] = read-out: cell viability (survival rate), LoVo, drug 10 μM, 72 hours, WST-1, OD450 nm
[27] = PC-3, repeated experiment, read-out: The results of antibiotic drug inhibiting cancer cell lines (cell viability analysis), PC-3
[28] = drug 10 μM, 72 hours, WST-1, OD450 nm, read-out: cell viability (survival rate), PC3
[29] = HepG2, repeated experiment, read-out: The results of antibiotic drug inhibiting cancer cell lines (cell viability analysis), HepG2
[30] = drug 10 μM, 72 hours, WST-1, OD450 nm, read-out: cell viability (survival rate), HepG2
[31] = TSGH-8301, repeated experiment, read-out: The results of antibiotic drug inhibiting cancer cell lines (cell viability analysis), TSGH-8301
[32] = drug 10 μM, 72 hours, WST-1, OD450 nm, read-out: cell viability (survival rate), TSGH
[33] = H1650, repeated experiment, read-out: The results of antibiotic drug inhibiting cancer cell lines (cell viability analysis), H1650
[34] = drug 10 μM, 72 hours, WST-1, OD450 nm, read-out: cell viability (survival rate), H1650
[35] = A549, repeated experiment, read-out: The results of antibiotic drug inhibiting cancer cell lines (cell viability analysis), A549
[36] = drug 10 μM, 72 hours, WST-1, OD450 nm, read-out: cell viability (survival rate), A549
[37] = A375, repeated experiment, read-out: The results of antibiotic drug inhibiting cancer cell lines (cell viability analysis), A375
[38] = drug 10 μM, 72 hours, WST-1, OD450 nm, read-out: cell viability (survival rate), A375
[39] = repeated experiment, read-out: The results of antibiotic drug inhibiting cancer cell lines (cell viability analysis), HeLa
[40] = drug 10 μM, 72 hours, WST-1, OD450 nm, read-out: cell viability (survival rate), HeLa
[41] = MKN-45, repeated experiment, read-out: The results of antibiotic drug inhibiting cancer cell lines (cell viability analysis), MKN-45
[42] = drug 10 μM, 72 hours, WST-1, OD450 nm, read-out: cell viability (survival rate), MKN-45
[43] = AGS, repeated experiment, read-out: The results of antibiotic drug inhibiting cancer cell lines (cell viability analysis), AGS
[44] = drug 10 μM, 72 hours, WST-1, OD450 nm, read-out: cell viability (survival rate), AGS

SMILES	viability at 10 µM [1, 25] [%]	viability at 10 µM [1, 26] [%]	viability at 10 µM [2, 27] [%]	viability at 10 µM [2, 28] [%]	viability at 10 µM [3] [%]	viability at 10 µM [4, 29] [%]	viability at 10 µM [4, 30] [%]	viability at 10 µM [5] [%]	viability at 10 µM [6] [%]	viability at 10 µM [7, 31] [%]	viability at 10 µM [7, 32] [%]	viability at 10 µM [8] [%]	viability at 10 µM [9, 33] [%]	viability at 10 µM [9, 34] [%]	viability at 10 µM [10] [%]	viability at 10 µM [11] [%]	viability at 10 µM [12, 35] [%]	viability at 10 µM [12, 36] [%]	viability at 10 µM [13, 37] [%]	viability at 10 µM [13, 38] [%]	further results
NC(=O)N/N=C/c1ccc([N+](=O)[O-])o1 [Nitrofurazone (Nitrofural), Nitrofurazone]	84.8	64.9	98.6	53.8	71.6	95.4	82.4	84	99.5	83.9	32.5	95.3	67.3	61.1	83.2	76.7	114	44.3	94.7	54.9	viability [14]: 110%; viability at 10 µM [15]: 92.4%; viability at 10 µM [16]: 87.4%; viability at 10 µM [17, 39]: 51.2%; viability at 10 µM [17, 40]: 55.4%; viability at 10 µM [18]: 85.6%; viability at 10 µM [19]: 93%; viability at 10 µM [20, 41]: 86.8%; viability at 10 µM [20, 42]: 42%; inhibition effect on different cancer cell lines [21]: significant inhibition effect; viability at 10 µM [22]: 92.3%; viability at 10 µM [23, 43]: 88.2%; viability at 10 µM [23, 44]: 28%; viability at 10 µM [24]: 95.7%
CC[C@@H]([C@H](C)O)n1ncn(-c2ccc(N3CCN(c4ccc(OC[C@@H]5CO[C@@](Cn6cncn6)(c6ccc(F)cc6F)C5)cc4)CC3)cc2)c1=O [Posaconazole]	62	73.7	52.1	45.3	42.6	57.8	87.2	60.4	62.3	81.9	51.3	95.2	67.5	67	35.5	32.2	18.1	42.9	47.9	49.8	viability [14]: 51.6%; viability at 10 µM [15]: 38.9%; viability at 10 µM [16]: 55.4%; viability at 10 µM [17, 39]: 49.4%; viability at 10 µM [17, 40]: 75.8%; viability at 10 µM [18]: 71.3%; viability at 10 µM [19]: 43.5%; viability at 10 µM [20, 41]: 92.8%; viability at 10 µM [20, 42]: 52%; inhibition effect on different cancer cell lines [21]: significant inhibition effect; viability at 10 µM [22]: 26.6%; viability at 10 µM [23, 43]: 65.7%; viability at 10 µM [23, 44]: 42.7%; viability at 10 µM [24]: 37.3%
